Source: patent US6642392B1 (priority 1997, dated 2003)
Where two headings read alike, the source gives them in different places.

How the values were obtained:
Assay type in all cases: in vivo
[1] = tested on: Eiysiphe graminis f. sp. tritici; assay: Test A: wheat powdery mildew, preventive spray on wheat seedlings; details: for Test A disease control rating: wheat powdery mildew; for Test A disease control rating (100 = 100% disease control, 0 = no disease control): wheat seedlings sprayed to run-off, inoculated the following day, rating relative to controls, unmarked compounds (standard test rate)
Method in brief: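 Preventive test: seedlings inoculated with powdery mildew spores one day after run-off spraying of a suspension. Ratings after 7 days in a 20° C growth chamber express percent disease control versus controls.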

[2] = tested on: Phytophthora infestans; details: for Test D disease control rating: tomato late blight; for Test D disease control rating (100 = 100% disease control, 0 = no disease control): tomato seedlings sprayed to run-off, inoculated the following day, rating relative to controls, unmarked compounds (standard test rate)
[3] = tested on: Botrytis cinerea; assay: Test E: gray mold, preventive spray on cucumber seedlings; details: for Test E disease control rating: gray mold on cucumber; for Test E disease control rating (100 = 100% disease control, 0 = no disease control): cucumber seedlings sprayed to run-off, inoculated the following day, rating relative to controls, unmarked compounds (standard test rate)
Method in brief: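 Preventive spray on cucumber seedlings used a suspension (3% acetone, 250 ppm Trem 014), applied to run-off one day before inoculation with Botrytis cinerea spores. Plants were held 48 h at 20° C in saturated air, then 5 days at 20° C. Percent disease control was scored relative to untreated plants.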

[4] = tested on: Pyricularia oryzae; details: for Test C disease control rating: rice blast; for Test C disease control rating (100 = 100% disease control, 0 = no disease control): rice seedlings sprayed to run-off, inoculated the following day, rating relative to controls, unmarked compounds (standard test rate)
[5] = tested on: Puccinia recondita; assay: Test B: wheat leaf rust, preventive spray on wheat seedlings; details: for Test B disease control rating: wheat leaf rust; for Test B disease control rating (100 = 100% disease control, 0 = no disease control): wheat seedlings sprayed to run-off, inoculated the following day, rating relative to controls, unmarked compounds (standard test rate)
Method in brief: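 Preventive test: P. recondita spores were applied one day after a run-off spray of compound suspension on wheat seedlings. Plants had 24 h at 20 °C in saturated air plus 6 days in a 20 °C growth chamber. Scoring is % disease control (100 = full) relative to controls.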

[6] = 100 = 100% disease control, 0 = no control relative to controls, unmarked entries (standard test concentration)
[7] = 100 = 100% disease control, 0 = no control, unmarked entries (standard test concentration)

Structure (SMILES)	Test A disease control rating [1, 6]	Test D disease control rating [2, 7]	Test E disease control rating [3, 7]	Test C disease control rating [4, 7]	Test B disease control rating [5, 7]	Test A disease control rating (100 = 100% disease control, 0 = no disease control) [1]	Test D disease control rating (100 = 100% disease control, 0 = no disease control) [2]	Test E disease control rating (100 = 100% disease control, 0 = no disease control) [3]	Test C disease control rating (100 = 100% disease control, 0 = no disease control) [4]	Test B disease control rating (100 = 100% disease control, 0 = no disease control) [5]	further results
CCC1(C(=O)NC(C)COc2ccccc2C(C)C)C(C)C1(Cl)Cl (centres unmarked) [compound 99]											Test A disease control rating ([1]; tested at 40 ppm): 83%; Test D disease control rating ([2]; tested at 40 ppm): 68%; Test E disease control rating ([3]; tested at 40 ppm): 0%; Test C disease control rating ([4]; tested at 40 ppm): 0%; Test B disease control rating ([5]; tested at 40 ppm): 0%
C[C@H](COc1cc(Cl)ccc1Cl)NC(=O)C(C#N)C(C)(C)C (single isomer, unassigned) [33a]	0%	0%	0%	97%	0%						
CC(COc1c(Cl)cccc1C#N)NC(=O)C(C#N)C(C)(C)C (mixture of isomers) [compound 210]	0%	0%	0%	91%	0%						
CC(COc1cc(C(C)(C)C)ccc1C#N)NC(=O)C(C#N)C(C)(C)C (mixture of isomers) [compound 305]						0%	0%	0%	53%	0%	
CC(C)(C)C(C#N)C(=O)NC/C=C/c1ccc(F)cc1F (racemic) [compound 273]						86%	23%	0%	53%	0%	
CC(C)(C)C(C#N)C(=O)NCCCc1ccccc1 (racemic) [compound 54]	34%	0%	16%	32%	11%						
CCC1(C(=O)NC(C)COc2c(F)cccc2C#N)C(C)C1(Cl)Cl (mixture of isomers) [compound 316]						0%	0%	0%	53%	0%	
CCC1(C(=O)NCC=Cc2cccc(Cl)c2)C(C)C1(Cl)Cl (centres unmarked) [compound 159]	0%	0%	47%	0%	0%						
CCC1(C(=O)NC(C)COc2cc(F)ccc2F)C(C)C1(Cl)Cl (centres unmarked) [compound 107]											Test A disease control rating ([1]; tested at 40 ppm): 71%; Test D disease control rating ([2]; tested at 40 ppm): 0%; Test E disease control rating ([3]; tested at 40 ppm): 0%; Test C disease control rating ([4]; tested at 40 ppm): 100%; Test B disease control rating ([5]; tested at 40 ppm): 0%
CC(C=Cc1ccc(F)cc1F)NC(=O)C(C#N)C(C)(C)C (mixture of isomers) [compound 309]						86%	23%	0%	91%	0%	
CC(COc1cccc(Cl)c1)NC(=O)C(C#N)C(C)(C)C (mixture of isomers) [6b]	38%	4%	0%	53%	68%						
CCC1(C(=O)NCC=C(C)c2cc(Cl)ccc2Cl)C(C)C1(Cl)Cl (centres unmarked) [compound 271]						77%	96%	0%	94%	0%	
CCC1(C(=O)NC(C)COc2ccc(F)c(F)c2)C(C)C1(Cl)Cl (centres unmarked) [compound 108]											Test A disease control rating ([1]; tested at 40 ppm): 57%; Test D disease control rating ([2]; tested at 40 ppm): 0%; Test E disease control rating ([3]; tested at 40 ppm): 0%; Test C disease control rating ([4]; tested at 40 ppm): 94%; Test B disease control rating ([5]; tested at 40 ppm): 0%
